Data from US8258127B2, “Methods for treating latent tuberculosis” (Institut National de la Sante et de la Recherche Medicale …, priority 2008, dated 2012).

Assays:
[1] = target: T1, LdtMt1 L,D-transpeptidase (Mycobacterium tuberculosis, UniProt O53638); test: Formation of enzyme-drug adducts between LdtMt1 and β-lactams (electrospray mass spectrometry); assay type: binding; settings: LdtMt1 12.5 μM, β-lactam 125 μM, 1 h at 37° C.; for Average mass Observated of LdtMt1-β-lactam adduct: ND: not detected, native protein 24,584.4
Experimental: LdtMt1 (12.5 μM) was incubated without antibiotic (left panel) or with 125 μM imipenem (right panel). Proteins and adducts were detected by electrospray mass spectrometry. Peaks at m/z 848.75 and 879.03 correspond to the [M+29H]^29+ and [M+28H]^28+ ions of the native protein, respectively (deduced average mass of 24,584.4). Peaks at m/z 859.08 and 889.65 correspond to the [M+29H]^29+ and [M+28H]^28+ ions of the LdtMt1-imipenem adduct (deduced average mass of 24,883.5).
The formation of enzyme-drug adducts was tested by incubating LdtMt1 (12.5 μM) with β-lactams (125 μM) for 1 h at 37° C. in buffer A. The reaction mixture was dialyzed against water for 30 min and the average mass of proteins and protein-β-lactam adducts was determined as described (Mainardi et al., 2007, Supra).
To gain insight into the mechanism of LdtMt1 inhibition by β-lactams, binding of the drugs to the enzyme was tested by electrospray mass spectrometry. […] Adducts matching increments of the average mass of other carbapenems, meropenem and ertapenem, were also detected (Table 2 hereunder).

[2] = target: T1, LdtMt1 L,D-transpeptidase; test: Inhibition of LdtMt1 L,D-transpeptidase activity by β-lactams (formation of mDap3→mDap3 cross-linked dimers, mass spectrometry); assay type: biochemical; settings: for blocking of the L,D-transpeptidase enzyme (summary in words): summary statement of the description
Experimental: The disaccharide-tetrapeptide containing amidated meso-diaminopimelic acid (GlcNAc-MurNAc-L-Ala^1-D-iGln^2-mesoDapNH2^3-D-Ala^4) was purified from C. jeikeium strain CIP103337 and the concentration w as determined by amino acid analysis after acid hydrolysis (Arbeloa et al., 2007, J. Biol. Chem., Vol. 279: 41546-41556; Auger et al., FEMS Microbiol. Lett., Vol. 219: 115-119). In vitro formation of muropeptide dimers was tested in 10 μL of 50 mM Tris-HCl (pH 7.5) containing 300 mM NaCl, 11 μM LdtMt1, and 280 μM disaccharide-tetrapeptide. The reaction mixture was incubated for 2 hours at 37° C., treated with ammonium hydroxide, and the resulting lactoyl-peptides were analyzed by nanoelectrospray tandem mass spectrometry using N2 as the collision gas (Arbeloa et al., 2007, Supra).
LdtMt1 (12.5 μM) was pre-incubated for 20 min at 37° C. with ampicillin (Bristol-Myers), ceftriaxone (Roche Applied Science), and imipenem (Merck Sharpe and Dhome-Chibret) in 50 mM Tris-HCl (pH 7.5) containing 300 mM NaCl (buffer A). The L,D-transpeptidation reaction was started by the addition of the disaccharide-tetrapeptide (final concentration 280 μM) and allowed to proceed for 2 hours at 37° C. The reaction products were detected by mass spectrometry (Mainardi et al., 2007, J. Biol. Chem., Vol. 282: 30414-30422).
To investigate inhibition of the L,D-transpeptidase activity of LdtMt1 by β-lactams, the formation of dimers containing mDap^3→mDap^3 cross-links was tested in the presence of various drug concentrations.

[3] = LdtMt1 12.5 μM, pre-incubated 20 min at 37° C., disaccharide-tetrapeptide 280 μM, 2 hours

T1 sequence (O53638 32-251 limits assumed): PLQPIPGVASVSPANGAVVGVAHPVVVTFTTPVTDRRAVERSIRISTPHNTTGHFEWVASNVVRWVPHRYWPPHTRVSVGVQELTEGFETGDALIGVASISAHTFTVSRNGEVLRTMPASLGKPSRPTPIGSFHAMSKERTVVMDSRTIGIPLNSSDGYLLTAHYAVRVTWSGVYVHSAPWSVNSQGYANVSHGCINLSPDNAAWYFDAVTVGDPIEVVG

| SMILES | formation of adduct with LdtMt1 (in words) [1] | highest tested concentration without inhibition of LdtMt1 [2, 3] | blocking of the L,D-transpeptidase enzyme (summary in words) [2] | drug concentration required for full inhibition of enzyme activity [2, 3] | Average mass Observated of LdtMt1-β-lactam adduct [1] |
| --- | --- | --- | --- | --- | --- |
| CC1(C)S[C@@H]2[C@H](NC(=O)[C@H](N)c3ccccc3)C(=O)N2[C@H]1C(=O)O [Ampicillin, ampicillin] | No adduct was detected | > 5.7 mM | inactive | – | – |
| CO/N=C(\C(=O)N[C@@H]1C(=O)N2C(C(=O)O)=C(CSc3nc(=O)c(=O)[nH]n3C)CS[C@H]12)c1csc(N)n1 [Ceftriaxone, ceftriaxone] | No adduct was detected | – | – | 360 µM | – |
| C[C@@H](O)[C@H]1C(=O)N2C(C(=O)O)=C(S[C@@H]3CN[C@H](C(=O)Nc4cccc(C(=O)O)c4)C3)[C@H](C)[C@H]12 [Ertapenem, ertapenem] | detected | – | block the said L,D-transpeptidase enzyme | – | 25,059.9 |
| C[C@@H](O)[C@H]1C(=O)N2C(C(=O)O)=C(S[C@@H]3CN[C@H](C(=O)N(C)C)C3)[C@H](C)[C@H]12 [Meropenem, meropenem] | detected | – | block the said L,D-transpeptidase enzyme | – | 24,967.8 |
